Patent publication US7462615B2, “Inhibitors of cysteine proteases, the pharmaceutical compositions thereof and their therapeutic applications” (Hybrigenics SA, priority 2005, dated 2008)

Legend:
MBP-SENP1 = molecular target: T1, MBP-SENP1 (Homo sapiens, UniProt Q9P0U3); test: SENP1 Activity Assay; type: biochemical; conditions: 200 nM SUMO-AMC; 1.8 nM enzyme; pre-incubated 30 minutes at 25° C., 60 minutes at 37° C.; sigmoidal fit; read-out: SENP1 (Inhibition of cysteine protease activities)
T1 construct: made in house; host or cells: E. coli BL21
T1 sequence (Q9P0U3 1-644): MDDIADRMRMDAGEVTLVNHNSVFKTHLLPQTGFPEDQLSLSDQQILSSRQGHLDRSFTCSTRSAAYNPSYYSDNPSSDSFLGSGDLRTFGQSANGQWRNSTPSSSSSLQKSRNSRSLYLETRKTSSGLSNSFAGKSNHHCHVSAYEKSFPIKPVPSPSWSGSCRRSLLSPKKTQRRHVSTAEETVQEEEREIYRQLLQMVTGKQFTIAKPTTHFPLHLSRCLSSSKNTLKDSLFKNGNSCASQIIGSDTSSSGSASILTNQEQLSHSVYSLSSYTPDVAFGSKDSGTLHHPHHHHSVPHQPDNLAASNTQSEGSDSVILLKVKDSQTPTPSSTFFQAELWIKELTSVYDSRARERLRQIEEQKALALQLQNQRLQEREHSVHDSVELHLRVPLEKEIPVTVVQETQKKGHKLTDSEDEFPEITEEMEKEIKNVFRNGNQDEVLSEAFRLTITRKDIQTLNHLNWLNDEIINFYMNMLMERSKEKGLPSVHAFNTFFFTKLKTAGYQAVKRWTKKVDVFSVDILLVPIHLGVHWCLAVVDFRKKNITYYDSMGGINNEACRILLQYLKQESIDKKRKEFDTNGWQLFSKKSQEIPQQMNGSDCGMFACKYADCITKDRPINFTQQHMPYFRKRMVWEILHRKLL
Protocol: The cDNA encoding SENP1 was obtained by PCR amplification from placenta mRNA. SENP1 cDNA was subcloned by PCR into a bacterial expression vector (pMAL-C2X; New England BioLabs, Inc). The sequence was ascertained by sequencing of the entire open reading frame. pMAL-C2-SENP1 was transformed into BL21 cells and grown in LB-ampicillin medium supplemented with glucose (2 g.l^−1). Fusion protein expression was induced by IPTG (0.5 mM). Bacterial cell lysates were harvested and lyzed in lysis buffer (Tris HCl 20 mM pH7.4; 1 mM EDTA; 200 mM NaCl; 0.5% Triton X-100; 10% glycerol; Protease Inhibitor Cocktail) followed by sonication. Proteins were affinity purified on amylose affinity resin (New England BioLabs, Inc). Bound materials were extensively washed in wash buffer (20 mM Tris HCl pH7.4; 200 mM NaCl; 1 mM EDTA; 0.5% Triton X-100; 10% glycerol) and eluted from the resin in 10 mM maltose-containing wash buffer. Proteins were dialyzed in dialysis buffer (Tris HCl pH 7.6 20 mM; NaCl 200 mM; DTT 1 mM; EDTA 1 mM; 10% Glycerol). Proteins purifications were analyzed on 4-12% NuPAGE (Invitrogen).
MBP-SENP1 was diluted in SENP1 buffer (50 mM Tris HCl; 0.5 mM EDTA; 5 mM DTT; 0.01% Triton X-100; Bovine Serum Albumin 0.05 mg.ml^−1 pH7.6). Compounds stocks (100 mM) were stored at −20° C. in DMSO. Compounds were tested at the following final concentrations: 100 μM; 33.3 μM; 11.1 μM; 3.7 μM; 1.23 μM; 412 nM; 137 nM; 45.7 nM; 15.2 nM; 5 nM.
Reactions were performed as duplicates in Black LJL 96 well plates (HE microplates; Molecular Devices; 20 μl final reaction volume). The substrate concentration for SENP1 was 200 nM SUMO-AMC (Chem. Biol., 2003, 10, p. 837-846) (Boston Biochem). The concentration of the enzyme (SENP1) in specificity assays was 1.8 nM. The concentrations were determined in order to perform specificity assays under initial velocities at fixed substrate concentration. Compounds were pre-incubated with enzymes for 30 minutes at 25° C. Reactions were initiated by addition of substrate to the plates containing the enzymes (+/− compounds) diluted in assay buffer. Reactions were incubated for 60 minutes at 37° C. Reactions were stopped by adding acetic acid (100 mM final). Readings were performed on a Pherastar Fluorescent Reader (BMG). λ Emission 380 nm; λ Excitation=460 nm. Data (mean values +/− standard deviation) were analyzed as % of control (no compound) and plotted as percentage versus the Log of the compound concentration using GraphPad (Prism). Data were fitted to a sigmoidal model (variable slope).

Cathepsin B = Cathepsin B (Homo sapiens, UniProt P07858); test: Cathepsin B Activity Assay; type: biochemical; conditions: 36 μM z-RR-AMC; 3.6 nM enzyme; pre-incubated 30 minutes at 25° C., 60 minutes at 37° C.; sigmoidal fit; read-out: Cathepsin B (Inhibition of cysteine protease activities)
Protocol: Cathepsin B was diluted in Cathepsin B buffer (20 mM Tris HCl pH 6.8; 1 mM EDTA; 1 mM DTT). Compounds stocks (100 mM) were stored at −20° C. in DMSO. Compounds were tested at the following final concentrations: 100 μM; 33.3 μM; 11.1 μM; 3.7 μM; 1.23 μM; 412 nM; 137 nM; 45.7 nM; 15.2 nM; 5 nM. Reactions were performed as duplicates in Black LJL 96 well plates (HE microplates; Molecular Devices; 20 μl final reaction volume). The substrate concentration for cathepsin B specificity assay was 36 μM (z-RR-AMC; Calbiochem). The concentration of the enzyme (Cathepsin B) in specificity assays was 3.6 nM. The concentrations were determined in order to perform specificity assays under initial velocities at fixed substrate concentration. Compounds were pre-incubated with enzymes for 30 minutes at 25° C. Reactions were initiated by addition of substrate to the plates containing the enzymes (+/− compounds) diluted in assay buffer. Reactions were incubated for 60 minutes at 37° C. Reactions were stopped by adding acetic acid (100 mM final). Readings were performed on a Pherastar Fluorescent Reader (BMG). δ […]. Data (mean values +/− standard deviation) were analyzed as % of control (no compound) and plotted as percentage versus the Log of the compound concentration using GraphPad (Prism). Data were fitted to a sigmoidal model (variable slope).

Row | IC50 (MBP-SENP1) [nM] | IC50 (Cathepsin B) [nM] | Compound
1 | > 100000 | 17400 | 6-(7)-Chloro-1-methyl-2,3,4,10,10a-pentaaza-cyclopenta[b]fluoren-9-one [Example 3/A]
2 |  | 24000 | Cc1nnc2nc3c(nn12)C(=O)c1ccccc1-3 [Example 1b/A, 1-Methyl-2,3,4,10,10a-pentaaza-cyclopenta[b]fluoren-9-one]
3 | 706 | 182 | Cc1nnc2nc3c(nn12)-c1ccccc1C3=O [Example 1b/B, 3-Methyl-1,2,3a,4,10-pentaaza-cyclopenta[b]fluoren-9-one]
4 |  | 5000 | Nc1nnc2nc3c(nn12)C(=O)c1ccccc1-3 [Example 1c/A, 1-Amino-2,3,4,10,10a-pentaaza-cyclopenta[b]fluoren-9-one]
5 | 731 | 103 | Nc1nnc2nc3c(nn12)-c1ccccc1C3=O [Example 1c/B, 3-Amino-1,2,3a,4,10-pentaaza-cyclopenta[b]fluoren-9-one]
6 | > 100000 |  | CCc1nnc2nc3c(nn12)C(=O)c1ccccc1-3 [Example 1d/A, 1-Ethyl-2,3,4,10,10a-pentaaza-cyclopenta[b]fluoren-9-one]
7 | 415 | 150 | CCc1nnc2nc3c(nn12)-c1ccccc1C3=O [Example 1d/B, 3-Ethyl-1,2,3a, 4,10-pentaaza-cyclopenta[b]fluoran-9-one]
8 | 5880 | 5410 | CCCc1nnc2nc3c(nn12)C(=O)c1ccccc1-3 [Example 1e/A, 1-Propyl-2,3,4,10,10a-pentaaza-cyclopenta[b]fluoren-9-one]
9 | 694 | 267 | CCCc1nnc2nc3c(nn12)-c1ccccc1C3=O [Example 1e/B, 3-Propyl-1,2,3a, 4,10-pentaaza-cyclopenta[b]fluoren-9-one]
10 | > 100000 | 6500 | CCCCc1nnc2nc3c(nn12)C(=O)c1ccccc1-3 [Example 1f/A, 1-Butyl-2,3,4,10,10a-pentaaza-cyclopenta[b]fluoren-9-one]
11 | 229 | 233 | CCCCc1nnc2nc3c(nn12)-c1ccccc1C3=O [Example 1f/B, 3-Butyl-1,2,3a,4,10-pentaaza-cyclopenta[b]fluoren-9-one]
12 | > 100000 | 4620 | CC(C)Cc1nnc2nc3c(nn12)C(=O)c1ccccc1-3 [Example 1g/A, 1-Isobutyl-2,3,4,10,10a-pentaaza-cyclopenta[b]fluoren-9-one]
13 | 954 | 264 | CC(C)Cc1nnc2nc3c(nn12)-c1ccccc1C3=O [Example 1g/B, 3-Isobutyl-1,2,3a,4,10-pentaaza-cyclopenta[b]fluoren-9-one]
14 |  | 30000 | O=C1c2ccccc2-c2nc3nnc(CO)n3nc21 [Example 1h/A, 1-Hydroxymethyl-2,3,4,10,10a-pentaaza-cyclopenta[b]fluoren-9-one]
15 | 1020 | 547 | O=C1c2ccccc2-c2nn3c(CO)nnc3nc21 [Example 1h/B]
16 | 22100 | 1020 | COCc1nnc2nc3c(nn12)C(=O)c1ccccc1-3 [Example 1i/A, 1-Methoxymethyl-2,3,4,10,10a-pentaaza-cyclopenta[b]fluoren-9-one]
17 | 1090 | 314 | COCc1nnc2nc3c(nn12)-c1ccccc1C3=O [Example 1i/B, 3-Methoxymethyl-1,2,3a, 4,10-pentaaza-cyclopenta[b]fluoren-9-one]
18 | > 100000 |  | O=C1c2ccccc2-c2nc3nnc(C4CC4)n3nc21 [Example 1j/A, 1-Cyclopropyl-2,3,4,10,10a-pentaaza-cyclopenta[b]fluoren-9-one]
19 | 299 | 181 | O=C1c2ccccc2-c2nn3c(C4CC4)nnc3nc21 [Example 1j/B, 3-Cyclopropyl-1,2,3a,4,10-pentaaza-cyclopenta[b]fluoren-9-one]
20 | > 100000 |  | O=C1c2ccccc2-c2nc3nnc(Cc4ccccc4)n3nc21 [Example 1k/A, 1-Benzyl-2,3,4,10,10a-pentaaza-cyclopenta[b]fluoren-9-one]
21 | 1210 | 363 | O=C1c2ccccc2-c2nn3c(Cc4ccccc4)nnc3nc21 [Example 1k/B, 3-Benzyl-1,2,3a,4,10-pentaaza-cyclopenta[b]fluoren-9-one]
22 | 855 | 147 | Cc1nnc2nc3c(nn12)-c1ccc(Cl)cc1C3=O [Example 3/B, 7-Chloro-3-methyl-1,2,3a, 4,10-pentaaza-cyclopenta[b]fluoren-9-one]
23 |  | > 100000 | Cn1nc2nc3c(nc2n1)-c1ccccc1C3=O [Example 4a, 2-Methyl-2H-1,2,3,4,10-pentaaza-cyclopenta[b]fluoren-9-one]
